Test results published in patent publication US20250222044A1, “LIMOSILACTOBACILLUS REUTERI GOLDGUT-LR99 AND APPLICATION THEREOF” (priority 2024, published 2025).

tested on: Limosilactobacillus reuteri GOLDGUT-LR99; assay: Carbon source utilization and oxidation experiment (AN Biolog micro-pore plate); type: cell-based; conditions: substrate utilization by the strain
Method: The AN Biolog micro-pore plate was used for measuring the utilization and oxidation conditions of different carbon sources of Limosilactobacillus reuteri GOLDGUT-LR99, the AN microplate used nutrients and biochemical reagents, and the method included the following steps: 1 mL of Limosilactobacillus reuteri GOLDGUT-LR99 bacterial liquid of the strain to be detected at the end of logarithmic growth was pipetted and centrifuged, then the supernatant was removed, the cells was washed three times with the seed liquid and suspended with 1 mL of the seed liquid, 50 μL of the suspension was taken and diluted in 10 mL of the seed liquid, the diluent was subpacked in a Biolog plate (100 μL/pore) after mixing uniformly, and the Biolog plate with the diluent was placed in 37° C. for anaerobic culture for 24 hours. After the culture was finished, OD590 and OD750 were detected by using microplate reader, the numerical values were recorded, and the utilization conditions of carbohydrate, organic acid and other substances of the Limosilactobacillus reuteri GOLDGUT-LR99 were calculated, wherein the calculation method was as follows: Y=OD590−OD750;

Compound	utilization effect (in words)
O=C(CO)[C@@H](O[C@H]1O[C@H](CO)[C@@H](O)[C@H](O)[C@H]1O)[C@H](O)[C@H](O)CO [turanose]	better utilization effect

same assay, conditions: substrate utilization by the strain, 37° C. anaerobic culture for 24 hours

Compound	Utilization (Y=OD590−OD750)
CC(=O)C(=O)O [Pyruvic acid]	+ (when 0.1 > Y > 0.05, it is shown that the strain was able to better utilize this substance, marked as +)
OC[C@@H](O)[C@@H](O)[C@@H](O)CO [Ribitol]	− (when Y < 0.05, it is shown that the strain was not able to utilize this substance, marked as −)
OCc1ccccc1O[C@@H]1O[C@H](CO)[C@@H](O)[C@H](O)[C@H]1O [Salicin]	− (when Y < 0.05, it is shown that the strain was not able to utilize this substance, marked as −)
OC[C@H]1O[C@H](OC[C@H]2O[C@H](OC[C@H]3O[C@H](O[C@]4(CO)O[C@H](CO)[C@@H](O)[C@@H]4O)[C@H](O)[C@@H](O)[C@@H]3O)[C@H](O)[C@@H](O)[C@H]2O)[C@H](O)[C@@H](O)[C@H]1O [Stachyose]	+ (when 0.1 > Y > 0.05, it is shown that the strain was able to better utilize this substance, marked as +)
NC(=O)CCC(=O)O [Succinamide acid]	+ (when 0.1 > Y > 0.05, it is shown that the strain was able to better utilize this substance, marked as +)
COC(=O)CCC(=O)O [Succinic acid methyl ester]	− (when Y < 0.05, it is shown that the strain was not able to utilize this substance, marked as −)
OC[C@H]1O[C@@](CO)(O[C@H]2O[C@H](CO)[C@@H](O)[C@H](O)[C@H]2O)[C@@H](O)[C@@H]1O [Sucrose]	− (when Y < 0.05, it is shown that the strain was not able to utilize this substance, marked as −)
Cc1cn([C@H]2C[C@H](O)[C@@H](CO)O2)c(=O)[nH]c1=O [Thymidine]	− (when Y < 0.05, it is shown that the strain was not able to utilize this substance, marked as −)
O=c1ccn([C@@H]2O[C@H](COP(=O)(O)O)[C@@H](O)[C@H]2O)c(=O)[nH]1 [Uridine-5′-monophosphate]	− (when Y < 0.05, it is shown that the strain was not able to utilize this substance, marked as −)
O=c1ccn([C@@H]2O[C@H](CO)[C@@H](O)[C@H]2O)c(=O)[nH]1 [Uridine]	− (when Y < 0.05, it is shown that the strain was not able to utilize this substance, marked as −)
OC[C@@H](O)[C@@H](O)CO [i-Erythritol]	− (when Y < 0.05, it is shown that the strain was not able to utilize this substance, marked as −)
O[C@H]1[C@H](O)[C@@H](O)[C@H](O)[C@@H](O)[C@H]1O [m-Inositol]	+ (when 0.1 > Y > 0.05, it is shown that the strain was able to better utilize this substance, marked as +)
O=C(O)C(O)C(O)C(=O)O (stereo not drawn) [m-Tartaric acid]	+ (when 0.1 > Y > 0.05, it is shown that the strain was able to better utilize this substance, marked as +)
OC[C@H]1O[C@@H]2O[C@H]3[C@H](O)[C@@H](O)[C@@H](O[C@H]4[C@H](O)[C@@H](O)[C@@H](O[C@H]5[C@H](O)[C@@H](O)[C@@H](O[C@H]6[C@H](O)[C@@H](O)[C@@H](O[C@H]7[C@H](O)[C@@H](O)[C@@H](O[C@H]1[C@H](O)[C@H]2O)O[C@@H]7CO)O[C@@H]6CO)O[C@@H]5CO)O[C@@H]4CO)O[C@@H]3CO [α-Cyclodextrin]	++ (when Y > 0.1, it is shown that the strain was able to effectively utilize this substance, marked as++)
OC[C@H]1O[C@H](O)[C@H](O)[C@@H](O)[C@@H]1O [α-D-Glucose]	− (when Y < 0.05, it is shown that the strain was not able to utilize this substance, marked as −)
OC[C@H]1O[C@@H](O[C@H]2[C@H](O)[C@@H](O)[C@@H](O)O[C@@H]2CO)[C@H](O)[C@@H](O)[C@H]1O [α-D-Lactose]	− (when Y < 0.05, it is shown that the strain was not able to utilize this substance, marked as −)
CCC(O)C(=O)O (stereo not drawn) [α-Hydroxybutyric acid]	− (when Y < 0.05, it is shown that the strain was not able to utilize this substance, marked as −)
O=C(O)CCC(=O)C(=O)O [α-Ketoglutaric acid]	− (when Y < 0.05, it is shown that the strain was not able to utilize this substance, marked as −)
CCCC(=O)C(=O)O [α-Ketovaleric acid]	− (when Y < 0.05, it is shown that the strain was not able to utilize this substance, marked as −)

Compound	Utilization (Y=OD590−OD750)
COC1OC(CO)C(O)C(O)C1O [α-Methyl-D-galactoside]	− (when Y < 0.05, it is shown that the strain was not able to utilize this substance, marked as −)
CO[C@H]1O[C@H](CO)[C@@H](O)[C@H](O)[C@H]1O [α-Methyl-D-glucoside]	− (when Y < 0.05, it is shown that the strain was not able to utilize this substance, marked as −)
OC[C@H]1O[C@@H]2O[C@H]3[C@H](O)[C@@H](O)[C@@H](O[C@H]4[C@H](O)[C@@H](O)[C@@H](O[C@H]5[C@H](O)[C@@H](O)[C@@H](O[C@H]6[C@H](O)[C@@H](O)[C@@H](O[C@H]7[C@H](O)[C@@H](O)[C@@H](O[C@H]8[C@H](O)[C@@H](O)[C@@H](O[C@H]1[C@H](O)[C@H]2O)O[C@@H]8CO)O[C@@H]7CO)O[C@@H]6CO)O[C@@H]5CO)O[C@@H]4CO)O[C@@H]3CO [β-Cyclodextrin]	− (when Y < 0.05, it is shown that the strain was not able to utilize this substance, marked as −)
CC(O)CC(=O)O (stereo not drawn) [β-Hydroxybutyric acid]	− (when Y < 0.05, it is shown that the strain was not able to utilize this substance, marked as −)
CO[C@@H]1O[C@H](CO)[C@@H](O)[C@H](O)[C@H]1O [β-Methyl-D-galactoside]	− (when Y < 0.05, it is shown that the strain was not able to utilize this substance, marked as −)
CO[C@@H]1O[C@H](CO)[C@@H](O)[C@H](O)[C@H]1O [β-Methyl-D-glucoside]	− (when Y < 0.05, it is shown that the strain was not able to utilize this substance, marked as −)
D-Aminoglucuronate	++ (when Y > 0.1, it is shown that the strain was able to effectively utilize this substance, marked as++)
Dextrin	− (when Y < 0.05, it is shown that the strain was not able to utilize this substance, marked as −)
Glycine-L-aspartic acid	− (when Y < 0.05, it is shown that the strain was not able to utilize this substance, marked as −)
Hexanediol	− (when Y < 0.05, it is shown that the strain was not able to utilize this substance, marked as −)
L-Alanyl-L-M-glutamate	− (when Y < 0.05, it is shown that the strain was not able to utilize this substance, marked as −)
L-Alanyl-L-M-threonine	− (when Y < 0.05, it is shown that the strain was not able to utilize this substance, marked as −)
L-Asparagine acid	+ (when 0.1 > Y > 0.05, it is shown that the strain was able to better utilize this substance, marked as +)
L-Glutamate salt	− (when Y < 0.05, it is shown that the strain was not able to utilize this substance, marked as −)
L-Uracilic acid	− (when Y < 0.05, it is shown that the strain was not able to utilize this substance, marked as −)
L-Valine + L-M-Aspartamid acid	− (when Y < 0.05, it is shown that the strain was not able to utilize this substance, marked as −)
Maltotriose	++ (when Y > 0.1, it is shown that the strain was able to effectively utilize this substance, marked as++)
α-Succinic acid	− (when Y < 0.05, it is shown that the strain was not able to utilize this substance, marked as −)

tested on: Limosilactobacillus reuteri GOLDGUT-LR99; assay: Antibiotic sensitivity, K-B method (Kirby-Bauer method); type: cell-based; design: key to Antibiotic susceptibility test result: R represents resistance; S represents sensitivity; conditions: susceptibility of the strain to the antibiotic
Method: Antibiotic sensitivity of Limosilactobacillus reuteri GOLDGUT-LR99 was determined using the K-B method (Kirby-Bauer method).

Compound	Antibiotic susceptibility test result	antibiotic sensitivity (in words)
CC1(C)S[C@@H]2[C@H](NC(=O)[C@H](N)c3ccccc3)C(=O)N2[C@H]1C(=O)O [Ampicillin]	S	sensitive
CC1(C)S[C@@H]2[C@H](NC(=O)Cc3ccccc3)C(=O)N2[C@H]1C(=O)O [Benzylpenicillin]	S	–
CC1(C)S[C@@H]2[C@H](NC(=O)C(C(=O)O)c3ccccc3)C(=O)N2[C@H]1C(=O)O (stereo partly drawn) [Carbenicillin]	S	–
Cc1nnc(SCC2=C(C(=O)O)N3C(=O)[C@@H](NC(=O)Cn4cnnn4)[C@H]3SC2)s1 [Cefazolin]	S	–
CCN1CCN(C(=O)N[C@@H](C(=O)N[C@@H]2C(=O)N3C(C(=O)O)=C(CSc4nnnn4C)CS[C@H]23)c2ccc(O)cc2)C(=O)C1=O [Cefperazone]	S	–
CC1=C(C(=O)O)N2C(=O)[C@@H](NC(=O)[C@H](N)C3=CCC=CC3)[C@H]2SC1 [Cefradine]	S	–
CC(C)(O/N=C(\C(=O)N[C@@H]1C(=O)N2C(C(=O)[O-])=C(C[n+]3ccccc3)CS[C@H]12)c1csc(N)n1)C(=O)O [Ceftazidime]	S	–
CO/N=C(\C(=O)N[C@@H]1C(=O)N2C(C(=O)O)=C(CSc3nc(=O)c(=O)[nH]n3C)CS[C@H]12)c1csc(N)n1 [Ceftriaxone]	S	–
CO/N=C(\C(=O)N[C@@H]1C(=O)N2C(C(=O)O)=C(COC(N)=O)CS[C@H]12)c1ccco1 [Cefuroxime]	S	–
